From ChEMBL document CHEMBL1201862, “PubChem BioAssay data set” (2004)
Calls of active or inactive are those of the source.

Key:
[1] = THP-1 cell cytotoxicity, dose response, cytotoxicity control for non-replicating M. tuberculosis project (AID 489025); format: functional
H4 = experiment: Luminescence Cell-Based Dose Response HTS to Identify Activators of 5'UTR Stem-Loop Driven Prion Protein mRNA Translation in H4 Neuroglioblastoma Cells. [Related pubchem assays: 1829 (Project Summary), 1814 (Primary HTS)]; format: functional; conditions: Homo sapiens
[2] = target: T1, Microphthalmia-associated transcription factor (Homo sapiens, UniProt O75030); experiment: reducers of TRPM1 reporter luminescence, concentration series – cell-based, SK-MEL-5, cherry-picked, set 3, MITF inhibitor project, dose response (AID 493073); format: functional;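 further: SK-MEL-5 melanoma cells with luciferase driven by the MITF target TRPM1 promoter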
T1 sequence (O75030 whole entry): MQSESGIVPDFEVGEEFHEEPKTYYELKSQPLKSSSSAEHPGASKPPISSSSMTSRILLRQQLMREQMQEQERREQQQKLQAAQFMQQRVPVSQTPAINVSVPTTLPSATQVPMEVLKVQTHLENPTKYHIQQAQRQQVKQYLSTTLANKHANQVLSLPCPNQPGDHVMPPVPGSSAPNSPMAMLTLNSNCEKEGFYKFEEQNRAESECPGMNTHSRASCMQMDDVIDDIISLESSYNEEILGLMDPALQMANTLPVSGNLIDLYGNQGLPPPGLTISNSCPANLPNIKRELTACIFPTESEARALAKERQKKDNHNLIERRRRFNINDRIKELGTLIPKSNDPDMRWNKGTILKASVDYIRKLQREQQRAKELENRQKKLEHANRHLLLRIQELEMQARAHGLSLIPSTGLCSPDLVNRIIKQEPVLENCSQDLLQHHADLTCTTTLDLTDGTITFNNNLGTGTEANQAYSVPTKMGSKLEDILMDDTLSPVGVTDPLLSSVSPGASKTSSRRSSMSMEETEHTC

[3] = Luminescence Cell-Based Dose Retest to Confirm Inhibitors of Cancer Stem Cells. [Related pubchem assays (depositor defined):AID2717, AID2721]; format: functional; conditions: Homo sapiens
[4] = Luminescence Cell-Based Dose Response HTS to Identify Activators of Luciferase Translation or Activity in H4 […] Cells. [Related pubchem assays: 1829 (Project Summary), 1814 (Primary HTS)]; format: functional
[5] = Vero E6 cell cytotoxicity, dose response, cytotoxicity control for non-replicating M. tuberculosis project, secondary assay (AID 492998); format: functional, VeroE6; conditions: Vero C1008
cells = format: functional
[6] = Luminescence Cell-Based Dose Confirmation HTS to Identify Activators of 5'UTR Stem-Loop Driven Alpha-Synuclein mRNA Translation in H4 Neuroglioblastoma Cells. [Related pubchem assays: 1829 (Project Summary), 1814 (Primary HTS)]; format: functional
HEK293 [7] = experiment: NOD2 signaling inhibitors in MDP-stimulated cells, cell-based, uHTS, luminescence (AID 2001); format: functional; conditions: Homo sapiens
HEK293 [8] = experiment: cells; format: functional, cell-based; conditions: Homo sapiens
Ion channel NompC = Ion channel NompC (Danio rerio, UniProt Q7T1G6); experiment: Dose response cell-based high-throughput screening assay for agonists of the transient receptor potential channel N1 (TRPN1). [Related pubchem assays (depositor defined):AID1424, AID1448]; format: functional
HEK293 [9] = experiment: inhibition of NOD1-driven NF-kB reporter – cell-based, luminescence, uHTS, primary screen (AID 1578); format: functional; conditions: Homo sapiens
Mucolipin-3 = Mucolipin-3 (Homo sapiens, UniProt Q8TDD5); experiment: Fluorescence counterscreen assay for […] agonists: dose response cell-based high-throughput screening assay to identify agonists of the transient receptor potential channel ML3 (TRPML3). [Related pubchem assays: 1424, 1448 ]; format: functional
Protein skinhead-1 = target: T2, Protein skinhead-1 (Caenorhabditis elegans, UniProt P34707); format: functional
T2 sequence (P34707 whole entry): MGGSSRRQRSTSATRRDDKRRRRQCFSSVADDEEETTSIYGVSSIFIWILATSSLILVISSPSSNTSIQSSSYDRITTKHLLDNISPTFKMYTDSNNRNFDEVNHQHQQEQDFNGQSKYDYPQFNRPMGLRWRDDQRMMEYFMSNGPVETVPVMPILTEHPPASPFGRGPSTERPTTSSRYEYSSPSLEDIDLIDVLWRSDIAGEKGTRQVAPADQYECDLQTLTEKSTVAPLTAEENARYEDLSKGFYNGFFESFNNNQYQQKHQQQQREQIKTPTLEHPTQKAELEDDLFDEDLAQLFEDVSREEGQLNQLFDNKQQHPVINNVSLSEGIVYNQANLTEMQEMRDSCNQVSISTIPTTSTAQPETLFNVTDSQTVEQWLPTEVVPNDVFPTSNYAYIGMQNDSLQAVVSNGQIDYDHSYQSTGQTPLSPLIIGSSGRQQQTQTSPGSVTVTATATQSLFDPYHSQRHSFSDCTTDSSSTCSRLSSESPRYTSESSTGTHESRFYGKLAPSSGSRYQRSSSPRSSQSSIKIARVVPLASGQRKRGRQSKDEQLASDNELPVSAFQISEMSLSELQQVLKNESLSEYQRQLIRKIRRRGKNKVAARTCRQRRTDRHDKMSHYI

[10] = target: Glyceraldehyde-3-phosphate dehydrogenase (Homo sapiens, UniProt P04406)
[11] = target: T3, Alkaline phosphatase, tissue-nonspecific isozyme (Homo sapiens, UniProt P05186); experiment: potency against alkaline phosphatase TNAP – biochemical, luminescent, dose response, SAR follow-up (AID 1056)
T3 sequence (P05186 whole entry): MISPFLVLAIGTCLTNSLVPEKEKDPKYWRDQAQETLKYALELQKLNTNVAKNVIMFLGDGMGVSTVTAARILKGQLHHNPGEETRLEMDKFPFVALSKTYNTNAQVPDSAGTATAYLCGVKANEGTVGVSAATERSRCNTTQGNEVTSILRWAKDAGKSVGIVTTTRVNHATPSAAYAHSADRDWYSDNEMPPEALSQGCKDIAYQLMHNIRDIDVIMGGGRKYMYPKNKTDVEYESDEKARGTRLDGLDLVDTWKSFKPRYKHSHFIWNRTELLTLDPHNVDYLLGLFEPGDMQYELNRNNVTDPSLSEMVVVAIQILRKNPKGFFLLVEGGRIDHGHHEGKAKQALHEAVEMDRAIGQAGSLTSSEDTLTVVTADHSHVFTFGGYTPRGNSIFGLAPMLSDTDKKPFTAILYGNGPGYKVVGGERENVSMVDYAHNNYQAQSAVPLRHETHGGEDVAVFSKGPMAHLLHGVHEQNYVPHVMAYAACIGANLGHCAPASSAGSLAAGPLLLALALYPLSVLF

[12] = target: T4, Sentrin-specific protease 8 (Homo sapiens, UniProt Q96LD8); format: functional;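 further: luminescence read-out of SENP8 inhibition, dose-response confirmation following an ultra-high-throughput screen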
T4 sequence (Q96LD8 whole entry): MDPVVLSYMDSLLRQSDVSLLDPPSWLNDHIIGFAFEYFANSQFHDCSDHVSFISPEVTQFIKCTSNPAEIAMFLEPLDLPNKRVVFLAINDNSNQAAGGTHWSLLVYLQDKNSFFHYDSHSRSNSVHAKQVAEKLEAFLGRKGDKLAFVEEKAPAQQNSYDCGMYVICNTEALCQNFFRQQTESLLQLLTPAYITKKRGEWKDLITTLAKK

[13] = target: T5, Sentrin-specific protease 6 (Homo sapiens, UniProt Q9GZR1); format: functional;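 further: Luminescence-based dose-response confirmatory assay of SENP6 inhibition, following up an ultra-high-throughput screen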
T5 sequence (Q9GZR1 whole entry): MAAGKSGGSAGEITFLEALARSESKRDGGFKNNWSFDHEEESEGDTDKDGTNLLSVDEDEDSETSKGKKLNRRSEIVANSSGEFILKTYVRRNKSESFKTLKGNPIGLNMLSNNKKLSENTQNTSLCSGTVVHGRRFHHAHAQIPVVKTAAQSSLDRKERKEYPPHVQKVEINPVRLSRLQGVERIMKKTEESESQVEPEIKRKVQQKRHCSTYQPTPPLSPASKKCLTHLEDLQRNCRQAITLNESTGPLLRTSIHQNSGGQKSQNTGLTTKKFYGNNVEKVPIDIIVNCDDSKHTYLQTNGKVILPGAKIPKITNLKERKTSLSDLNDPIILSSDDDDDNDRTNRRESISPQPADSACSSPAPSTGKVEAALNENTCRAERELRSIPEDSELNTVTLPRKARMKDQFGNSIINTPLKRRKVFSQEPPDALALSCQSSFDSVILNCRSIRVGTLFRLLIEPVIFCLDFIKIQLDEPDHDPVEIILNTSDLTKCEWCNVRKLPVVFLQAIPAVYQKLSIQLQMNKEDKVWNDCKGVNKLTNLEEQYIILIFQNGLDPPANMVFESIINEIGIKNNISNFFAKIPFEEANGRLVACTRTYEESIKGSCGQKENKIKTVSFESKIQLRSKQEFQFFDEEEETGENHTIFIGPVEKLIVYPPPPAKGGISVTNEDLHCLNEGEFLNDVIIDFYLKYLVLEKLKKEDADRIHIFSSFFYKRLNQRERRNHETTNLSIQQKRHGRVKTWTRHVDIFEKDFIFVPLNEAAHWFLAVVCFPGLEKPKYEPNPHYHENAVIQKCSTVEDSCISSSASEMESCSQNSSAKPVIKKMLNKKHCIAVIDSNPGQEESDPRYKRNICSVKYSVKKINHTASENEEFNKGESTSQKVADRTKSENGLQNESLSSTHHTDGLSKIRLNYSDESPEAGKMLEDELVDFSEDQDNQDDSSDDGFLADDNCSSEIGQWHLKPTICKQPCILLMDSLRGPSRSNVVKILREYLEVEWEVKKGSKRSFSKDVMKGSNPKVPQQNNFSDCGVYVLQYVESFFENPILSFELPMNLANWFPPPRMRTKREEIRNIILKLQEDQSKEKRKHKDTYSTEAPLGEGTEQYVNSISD

Caspase-3 = target: T6, Caspase-3 (Homo sapiens, UniProt P42574); format: functional;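 further: Dose-response selectivity test against caspase-3 for candidate inhibitors of sentrin-specific proteases (SENPs)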
T6 sequence (P42574 whole entry): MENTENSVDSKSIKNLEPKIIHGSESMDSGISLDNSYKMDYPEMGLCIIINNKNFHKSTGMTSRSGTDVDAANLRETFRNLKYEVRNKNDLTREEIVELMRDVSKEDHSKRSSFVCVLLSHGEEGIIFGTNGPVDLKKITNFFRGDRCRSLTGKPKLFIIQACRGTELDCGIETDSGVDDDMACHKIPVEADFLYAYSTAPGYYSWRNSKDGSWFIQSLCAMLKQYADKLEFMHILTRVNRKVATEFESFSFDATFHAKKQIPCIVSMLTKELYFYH

[14] = target: T7, Sentrin-specific protease 7 (Homo sapiens, UniProt Q9BQF6); format: functional;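 further: Luminescence-based dose-response confirmation of ultra-high-throughput screening hits, measuring inhibition of SENP7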
T7 sequence (Q9BQF6 whole entry): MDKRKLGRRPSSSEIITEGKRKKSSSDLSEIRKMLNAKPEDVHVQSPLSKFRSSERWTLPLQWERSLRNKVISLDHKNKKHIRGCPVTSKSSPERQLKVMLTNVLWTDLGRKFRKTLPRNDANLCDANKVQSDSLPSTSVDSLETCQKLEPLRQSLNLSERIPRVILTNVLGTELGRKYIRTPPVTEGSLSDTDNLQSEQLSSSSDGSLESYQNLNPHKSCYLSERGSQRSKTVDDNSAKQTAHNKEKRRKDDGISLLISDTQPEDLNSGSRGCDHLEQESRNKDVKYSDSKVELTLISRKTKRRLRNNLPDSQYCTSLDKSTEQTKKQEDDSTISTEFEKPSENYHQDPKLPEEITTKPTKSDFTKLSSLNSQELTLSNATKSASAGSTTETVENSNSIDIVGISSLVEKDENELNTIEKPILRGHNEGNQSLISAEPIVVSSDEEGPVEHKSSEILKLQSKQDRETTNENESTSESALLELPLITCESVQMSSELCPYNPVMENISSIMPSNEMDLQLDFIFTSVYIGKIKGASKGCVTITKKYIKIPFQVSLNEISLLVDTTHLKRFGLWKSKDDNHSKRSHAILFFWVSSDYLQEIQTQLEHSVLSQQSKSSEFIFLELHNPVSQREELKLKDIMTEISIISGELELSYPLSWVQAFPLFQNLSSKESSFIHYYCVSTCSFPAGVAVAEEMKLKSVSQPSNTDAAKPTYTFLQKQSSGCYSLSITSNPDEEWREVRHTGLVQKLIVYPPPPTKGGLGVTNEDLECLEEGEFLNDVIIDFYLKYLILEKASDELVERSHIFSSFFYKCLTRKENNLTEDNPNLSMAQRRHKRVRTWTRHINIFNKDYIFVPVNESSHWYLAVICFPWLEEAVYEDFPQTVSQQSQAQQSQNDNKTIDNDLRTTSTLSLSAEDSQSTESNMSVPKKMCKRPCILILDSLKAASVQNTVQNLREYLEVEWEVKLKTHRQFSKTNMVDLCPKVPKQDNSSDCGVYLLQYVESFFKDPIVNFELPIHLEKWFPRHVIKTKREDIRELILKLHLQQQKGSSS

[15] = target: T8, Voltage-gated N-type calcium channel alpha-1B subunit/Amyloid beta A4 precursor protein-binding family A member 1 (Homo sapiens, UniProt Q00975+Q02410); format: protein assay
[16] = target: T8, Voltage-gated N-type calcium channel alpha-1B subunit/Amyloid beta A4 precursor protein-binding family A member 1; format: protein assay; remark: listed apart in the source

Chain of Ion channel NompC (Q7T1G6 whole entry): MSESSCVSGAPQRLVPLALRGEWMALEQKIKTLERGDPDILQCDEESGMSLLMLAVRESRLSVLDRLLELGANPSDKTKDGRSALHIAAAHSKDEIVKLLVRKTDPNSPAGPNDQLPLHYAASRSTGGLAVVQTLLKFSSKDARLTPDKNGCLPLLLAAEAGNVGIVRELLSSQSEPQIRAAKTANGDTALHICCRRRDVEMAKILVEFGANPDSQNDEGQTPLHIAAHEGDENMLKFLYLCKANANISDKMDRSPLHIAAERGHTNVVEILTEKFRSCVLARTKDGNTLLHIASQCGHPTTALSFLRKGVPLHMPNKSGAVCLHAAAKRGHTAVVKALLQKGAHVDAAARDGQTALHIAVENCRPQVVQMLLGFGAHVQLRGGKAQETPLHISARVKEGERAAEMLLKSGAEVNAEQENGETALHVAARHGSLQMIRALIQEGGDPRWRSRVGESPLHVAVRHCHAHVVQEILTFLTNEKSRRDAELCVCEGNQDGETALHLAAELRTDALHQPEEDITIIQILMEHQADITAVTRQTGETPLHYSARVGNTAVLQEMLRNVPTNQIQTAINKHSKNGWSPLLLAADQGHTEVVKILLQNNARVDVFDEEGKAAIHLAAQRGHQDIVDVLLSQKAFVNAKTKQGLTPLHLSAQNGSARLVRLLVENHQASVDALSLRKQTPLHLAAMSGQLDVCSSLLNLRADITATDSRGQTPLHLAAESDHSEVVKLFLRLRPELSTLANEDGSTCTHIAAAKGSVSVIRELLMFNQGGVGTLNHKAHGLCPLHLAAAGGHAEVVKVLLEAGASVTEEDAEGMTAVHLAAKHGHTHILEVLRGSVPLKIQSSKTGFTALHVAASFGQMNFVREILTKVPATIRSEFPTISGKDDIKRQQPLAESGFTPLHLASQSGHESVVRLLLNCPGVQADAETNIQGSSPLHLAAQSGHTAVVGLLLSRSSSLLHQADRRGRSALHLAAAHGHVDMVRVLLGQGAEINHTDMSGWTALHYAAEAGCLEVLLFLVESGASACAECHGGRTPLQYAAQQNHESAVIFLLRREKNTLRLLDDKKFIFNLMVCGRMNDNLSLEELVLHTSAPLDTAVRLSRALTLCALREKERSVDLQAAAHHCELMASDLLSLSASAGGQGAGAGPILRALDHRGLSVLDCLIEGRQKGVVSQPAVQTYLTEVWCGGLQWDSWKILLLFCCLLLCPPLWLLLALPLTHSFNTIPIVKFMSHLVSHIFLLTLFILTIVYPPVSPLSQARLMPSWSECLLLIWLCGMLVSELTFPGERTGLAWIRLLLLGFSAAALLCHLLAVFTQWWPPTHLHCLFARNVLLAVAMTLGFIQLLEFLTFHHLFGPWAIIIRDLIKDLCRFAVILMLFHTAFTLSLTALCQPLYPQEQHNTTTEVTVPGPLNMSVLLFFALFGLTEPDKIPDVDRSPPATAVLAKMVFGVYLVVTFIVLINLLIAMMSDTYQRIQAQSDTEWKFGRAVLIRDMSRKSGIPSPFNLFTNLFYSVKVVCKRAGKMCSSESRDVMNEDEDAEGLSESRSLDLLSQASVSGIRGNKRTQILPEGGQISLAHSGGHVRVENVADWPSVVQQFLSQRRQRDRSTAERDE
T8 sequence (Q00975 whole entry): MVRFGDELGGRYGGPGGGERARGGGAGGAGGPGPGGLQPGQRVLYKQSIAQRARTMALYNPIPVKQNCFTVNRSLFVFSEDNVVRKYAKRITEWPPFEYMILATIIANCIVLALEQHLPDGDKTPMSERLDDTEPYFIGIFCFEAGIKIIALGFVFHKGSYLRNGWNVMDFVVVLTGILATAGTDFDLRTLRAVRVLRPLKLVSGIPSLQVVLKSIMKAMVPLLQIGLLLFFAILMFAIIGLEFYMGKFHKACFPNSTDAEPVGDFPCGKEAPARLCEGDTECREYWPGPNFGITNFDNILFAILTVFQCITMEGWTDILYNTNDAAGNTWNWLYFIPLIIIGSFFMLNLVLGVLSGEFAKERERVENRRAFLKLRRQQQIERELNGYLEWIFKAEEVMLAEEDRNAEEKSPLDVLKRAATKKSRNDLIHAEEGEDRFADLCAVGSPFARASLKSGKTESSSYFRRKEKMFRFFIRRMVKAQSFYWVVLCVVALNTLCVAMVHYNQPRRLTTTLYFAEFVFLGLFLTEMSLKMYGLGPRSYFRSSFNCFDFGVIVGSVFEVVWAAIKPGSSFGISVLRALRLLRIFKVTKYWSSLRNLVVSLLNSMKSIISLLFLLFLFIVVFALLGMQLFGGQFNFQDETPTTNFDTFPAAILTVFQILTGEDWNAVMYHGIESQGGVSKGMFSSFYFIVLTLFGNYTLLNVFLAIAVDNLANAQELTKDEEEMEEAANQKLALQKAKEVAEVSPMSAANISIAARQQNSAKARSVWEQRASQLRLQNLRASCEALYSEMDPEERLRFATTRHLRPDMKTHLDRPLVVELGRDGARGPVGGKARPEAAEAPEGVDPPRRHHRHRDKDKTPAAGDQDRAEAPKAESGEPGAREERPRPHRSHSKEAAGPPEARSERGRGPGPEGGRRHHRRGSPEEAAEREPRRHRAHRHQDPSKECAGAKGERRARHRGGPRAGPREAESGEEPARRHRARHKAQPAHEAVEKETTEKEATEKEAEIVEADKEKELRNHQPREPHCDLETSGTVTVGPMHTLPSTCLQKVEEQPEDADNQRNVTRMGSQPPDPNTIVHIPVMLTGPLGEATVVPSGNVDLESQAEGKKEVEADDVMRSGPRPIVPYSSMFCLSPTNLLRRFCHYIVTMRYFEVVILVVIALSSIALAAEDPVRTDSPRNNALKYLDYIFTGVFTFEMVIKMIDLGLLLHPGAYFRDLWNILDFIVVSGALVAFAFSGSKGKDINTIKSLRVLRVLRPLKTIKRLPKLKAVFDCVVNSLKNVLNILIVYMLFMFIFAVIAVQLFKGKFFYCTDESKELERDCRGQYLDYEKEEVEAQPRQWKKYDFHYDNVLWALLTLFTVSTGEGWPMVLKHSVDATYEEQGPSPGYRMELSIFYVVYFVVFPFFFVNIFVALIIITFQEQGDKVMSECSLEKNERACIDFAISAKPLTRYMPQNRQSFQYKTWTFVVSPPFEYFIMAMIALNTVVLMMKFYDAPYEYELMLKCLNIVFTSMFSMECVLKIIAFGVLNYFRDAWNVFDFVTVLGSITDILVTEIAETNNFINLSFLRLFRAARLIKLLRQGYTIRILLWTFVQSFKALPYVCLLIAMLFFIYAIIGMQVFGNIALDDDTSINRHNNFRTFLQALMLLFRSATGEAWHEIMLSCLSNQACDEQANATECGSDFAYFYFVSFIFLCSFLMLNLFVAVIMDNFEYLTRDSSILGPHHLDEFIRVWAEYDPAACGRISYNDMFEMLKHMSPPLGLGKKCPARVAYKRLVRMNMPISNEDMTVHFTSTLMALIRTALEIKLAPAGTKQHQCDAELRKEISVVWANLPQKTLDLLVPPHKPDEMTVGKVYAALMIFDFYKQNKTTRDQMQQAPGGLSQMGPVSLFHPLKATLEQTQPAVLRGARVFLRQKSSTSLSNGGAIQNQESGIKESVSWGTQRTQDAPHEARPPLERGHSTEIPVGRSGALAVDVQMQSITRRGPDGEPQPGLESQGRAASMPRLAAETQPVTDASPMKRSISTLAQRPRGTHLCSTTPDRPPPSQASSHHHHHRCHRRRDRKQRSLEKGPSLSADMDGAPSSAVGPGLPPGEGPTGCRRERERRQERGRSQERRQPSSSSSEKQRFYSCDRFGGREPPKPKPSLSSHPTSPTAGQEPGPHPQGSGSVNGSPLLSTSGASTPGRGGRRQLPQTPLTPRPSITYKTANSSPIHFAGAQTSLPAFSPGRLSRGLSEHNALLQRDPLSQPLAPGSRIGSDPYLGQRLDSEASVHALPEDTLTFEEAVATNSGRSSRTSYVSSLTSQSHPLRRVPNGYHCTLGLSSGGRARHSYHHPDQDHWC
T8 sequence (Q02410 whole entry): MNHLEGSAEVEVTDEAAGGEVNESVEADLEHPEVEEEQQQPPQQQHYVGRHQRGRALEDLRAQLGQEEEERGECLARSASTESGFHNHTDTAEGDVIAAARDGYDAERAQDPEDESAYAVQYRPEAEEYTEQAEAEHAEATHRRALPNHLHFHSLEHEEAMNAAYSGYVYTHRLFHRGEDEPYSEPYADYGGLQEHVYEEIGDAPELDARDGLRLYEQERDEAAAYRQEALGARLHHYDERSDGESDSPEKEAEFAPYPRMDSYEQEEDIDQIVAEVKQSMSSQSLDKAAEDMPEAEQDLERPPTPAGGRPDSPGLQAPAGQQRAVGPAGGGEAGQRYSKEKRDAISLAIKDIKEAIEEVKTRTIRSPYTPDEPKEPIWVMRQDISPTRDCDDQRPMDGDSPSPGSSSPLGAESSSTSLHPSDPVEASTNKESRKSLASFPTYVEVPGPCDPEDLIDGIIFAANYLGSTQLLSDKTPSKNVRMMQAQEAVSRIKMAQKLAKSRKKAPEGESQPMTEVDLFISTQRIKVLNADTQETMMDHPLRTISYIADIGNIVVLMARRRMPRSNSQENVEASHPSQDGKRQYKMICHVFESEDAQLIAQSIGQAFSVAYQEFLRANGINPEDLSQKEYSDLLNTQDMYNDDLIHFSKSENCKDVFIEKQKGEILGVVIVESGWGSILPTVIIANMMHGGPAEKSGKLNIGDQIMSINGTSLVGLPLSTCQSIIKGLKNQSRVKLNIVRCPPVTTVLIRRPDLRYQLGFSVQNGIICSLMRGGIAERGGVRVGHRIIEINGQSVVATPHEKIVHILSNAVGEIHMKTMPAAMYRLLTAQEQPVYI
Chain of Glyceraldehyde-3-phosphate dehydrogenase (P04406 whole entry): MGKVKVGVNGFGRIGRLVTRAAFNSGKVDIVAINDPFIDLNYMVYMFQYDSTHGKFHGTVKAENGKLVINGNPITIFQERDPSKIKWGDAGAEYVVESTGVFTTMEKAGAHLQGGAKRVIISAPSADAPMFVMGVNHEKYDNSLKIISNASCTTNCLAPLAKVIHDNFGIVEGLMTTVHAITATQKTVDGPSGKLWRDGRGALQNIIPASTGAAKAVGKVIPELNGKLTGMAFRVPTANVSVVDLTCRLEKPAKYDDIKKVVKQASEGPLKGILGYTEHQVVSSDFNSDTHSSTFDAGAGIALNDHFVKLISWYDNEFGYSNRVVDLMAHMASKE

## O=C(Nc1cccc(S(=O)(=O)N2CCCCC2)c1)c1ccc([N+](=O)[O-])o1
[1]
  CC50: 8.73 µM (active)
H4
  EC50: > 120 µM (not active)
[2]
  AC50: 11.9 µM (active)
[3]
  AC50: 2.44 µM (active)
[4]
  EC50: > 120 µM (not active)
[5]
  CC50: 4.29 µM (active)
cells
  IC50: 5.03 µM (active)
[6]
  EC50: > 120 µM (not active)

## Cc1ccc(NC(=O)Nc2nnc(-c3ccncc3)s2)cc1
HEK293 [7]
  IC50: 5.87 µM (active)
HEK293 [8]
  IC50: > 20 µM (inactive)
Ion channel NompC
  EC50: > 29.9 µM (inactive)
HEK293 [9]
  EC50: 3.38 µM (active)
Mucolipin-3
  EC50: > 29.9 µM (not active)

## C#CCSc1nnc(-c2cccc3ccccc23)o1
[1]
  CC50: 20.6 µM (active)
[5]
  CC50: 15.7 µM (active)
Protein skinhead-1
  IC50: 10.2 µM (active)
cells
  IC50: 9.32 µM (active)

## COc1ccc(S(=O)(=O)Nc2ccncn2)cc1OC
[10]
  IC50: > 100 µM (not active)
[11]
  IC50: > 100 µM (inactive)

## O=c1[nH]c(/C=C/c2ccccc2Cl)nc2ccccc12
[12]
  IC50: > 100 µM (inactive)
[13]
  IC50: 1.4 µM (active)
Caspase-3
  IC50: 1.61 µM (active)
[14]
  IC50: 1.64 µM (active)
[15]
  IC50: > 50 µM (inactive)
[16]
  IC50: > 56.8 µM (not active)

## COC(=O)C(/C=N/OCc1ccc([N+](=O)[O-])cc1)NC(=O)c1cccc(Cl)c1 (configuration not stated)
Ion channel NompC
  EC50: > 29.9 µM (inactive)
Mucolipin-3
  EC50: > 29.9 µM (not active)
